In US8758816B2, “Compositions comprising azelastine and methods of use thereof” (priority 2004, dated 2014):

Tested on: patients with seasonal allergic rhinitis (SAR)
Experiment: MP 428 study: individual symptom severity scores (runny nose, itchy nose, sneezing, congestion; 0-3 scale)
Assay type: in vivo, human
Conditions: Intent-to-Treat Population
Procedure: A two-week, randomized, double-blind study, which evaluated the effects of the co-administration of ASTELIN® (azelastine hydrochloride (HCl)) and FLONASE® (fluticasone propionate) compared to either product alone in patients with seasonal allergic rhinitis (SAR) was conducted during the 2006 Texas mountain cedar season. After a 5-day placebo lead-in period, 151 patients with moderate-to-severe allergic rhinitis symptoms were randomized to either: (1) (49 total patients) ASTELIN® (azelastine hydrochloride (HCl)) plus placebo saline nasal spray 2 sprays per nostril, 15 minutes apart, twice daily (AM & PM); (2) (50 total patients) FLONASE® (fluticasone propionate) plus placebo saline nasal spray, 2 sprays per nostril, 15 minutes apart, once daily (AM) and two sessions of placebo saline nasal spray, 2 sprays per nostril, 15 minutes apart (PM); or (3) (52 total patients) the co-administration of ASTELIN® (azelastine hydrochloride (HCl)) 2 sprays per nostril plus FLONASE® (fluticasone propionate) 2 sprays per nostril (AM), 15 minutes apart, and ASTELIN® (azelastine hydrochloride (HCl)) 2 sprays per nostril plus placebo saline nasal spray, 15 minutes apart, (PM) for a 2-week double-blind treatment period.
The primary efficacy variable was the change from baseline in the Total Nasal Symptom Score (TNSS), which comprised sneezing, itchy nose, runny nose, and nasal congestion (individual symptoms scores were assigned a value between 0 and 3, where 0=no symptoms and 3=severe symptoms). This study was not statistically designed to assess the differences between ASTELIN® and FLONASE®.
The results of the clinical trial are summarized and presented in Appendix A hereinbelow and in FIGS. 1-6. […] FIGS. 2-5 show the mean improvement in severity score (0-3 scale) from baseline for the symptoms of runny nose, itchy nose, sneezing and congestion, respectively.

Structure (SMILES): CCC(=O)O[C@]1(C(=O)SCF)[C@H](C)C[C@H]2[C@@H]3C[C@H](F)C4=CC(=O)C=C[C@]4(C)[C@@]3(F)[C@@H](O)C[C@@]21C [Fluticasone, fluticasone propionate]
- Percent Change from Baseline in AM and PM Combined Nasal Symptom Score: Congestion, LS Mean (Day 12): −26.02%
- Percent Change from Baseline in AM and PM Combined Nasal Symptom Score: Congestion, Mean (Day 12): −27.05%
- Percent Change from Baseline in AM and PM Combined Nasal Symptom Score: Congestion, Median (Day 12): −27.93%
- Percent Change from Baseline in AM and PM Combined Nasal Symptom Score: Itchy Nose, LS Mean (Day 12): −29.96%
- Percent Change from Baseline in AM and PM Combined Nasal Symptom Score: Itchy Nose, Mean (Day 12): −29.58%
- Percent Change from Baseline in AM and PM Combined Nasal Symptom Score: Itchy Nose, Median (Day 12): −30.22%
- Percent Change from Baseline in AM and PM Combined Nasal Symptom Score: Runny Nose, LS Mean (Day 12): −31.33%
- Percent Change from Baseline in AM and PM Combined Nasal Symptom Score: Runny Nose, Mean (Day 12): −31.86%
- Percent Change from Baseline in AM and PM Combined Nasal Symptom Score: Runny Nose, Median (Day 12): −25.62%
- Percent Change from Baseline in AM and PM Combined Nasal Symptom Score: Sneezing, LS Mean (Day 12): −33.86%
- Percent Change from Baseline in AM and PM Combined Nasal Symptom Score: Sneezing, Mean (Day 12): −31.18%
- Percent Change from Baseline in AM and PM Combined Nasal Symptom Score: Sneezing, Median (Day 12): −35.69%
- Change from Baseline in AM and PM Combined Nasal Symptom Score: Congestion, LS Mean (Day 13): −1.55
- Change from Baseline in AM and PM Combined Nasal Symptom Score: Congestion, Mean (Day 13): −1.59
- Change from Baseline in AM and PM Combined Nasal Symptom Score: Congestion, Median (Day 13): −1.43
- Change from Baseline in AM and PM Combined Nasal Symptom Score: Itchy Nose, LS Mean (Day 13): −1.64
- Change from Baseline in AM and PM Combined Nasal Symptom Score: Itchy Nose, Mean (Day 13): −1.62
- Change from Baseline in AM and PM Combined Nasal Symptom Score: Itchy Nose, Median (Day 13): −1.42
- Change from Baseline in AM and PM Combined Nasal Symptom Score: Runny Nose, LS Mean (Day 13): −1.78
- Change from Baseline in AM and PM Combined Nasal Symptom Score: Runny Nose, Mean (Day 13): −1.78
- Change from Baseline in AM and PM Combined Nasal Symptom Score: Runny Nose, Median (Day 13): −2.00
- Change from Baseline in AM and PM Combined Nasal Symptom Score: Sneezing, LS Mean (Day 13): −1.98
- Change from Baseline in AM and PM Combined Nasal Symptom Score: Sneezing, Mean (Day 13): −1.84
- Change from Baseline in AM and PM Combined Nasal Symptom Score: Sneezing, Median (Day 13): −1.83
- Percent Change from Baseline in AM and PM Combined Nasal Symptom Score: Congestion, LS Mean (Day 13): −28.59%
- Percent Change from Baseline in AM and PM Combined Nasal Symptom Score: Congestion, Mean (Day 13): −28.95%
- Percent Change from Baseline in AM and PM Combined Nasal Symptom Score: Congestion, Median (Day 13): −26.38%
- Percent Change from Baseline in AM and PM Combined Nasal Symptom Score: Itchy Nose, LS Mean (Day 13): −31.14%
- Percent Change from Baseline in AM and PM Combined Nasal Symptom Score: Itchy Nose, Mean (Day 13): −30.81%
- Percent Change from Baseline in AM and PM Combined Nasal Symptom Score: Itchy Nose, Median (Day 13): −31.23%
- Percent Change from Baseline in AM and PM Combined Nasal Symptom Score: Runny Nose, LS Mean (Day 13): −30.96%
- Percent Change from Baseline in AM and PM Combined Nasal Symptom Score: Runny Nose, Mean (Day 13): −30.84%
- Percent Change from Baseline in AM and PM Combined Nasal Symptom Score: Runny Nose, Median (Day 13): −33.33%
- Percent Change from Baseline in AM and PM Combined Nasal Symptom Score: Sneezing, LS Mean (Day 13): −42.84%
- Percent Change from Baseline in AM and PM Combined Nasal Symptom Score: Sneezing, Mean (Day 13): −40.87%
- Percent Change from Baseline in AM and PM Combined Nasal Symptom Score: Sneezing, Median (Day 13): −35.42%
- Change from Baseline in AM and PM Combined Nasal Symptom Score: Congestion, LS Mean (Day 14): −1.53
- Change from Baseline in AM and PM Combined Nasal Symptom Score: Congestion, Mean (Day 14): −1.59
- Change from Baseline in AM and PM Combined Nasal Symptom Score: Congestion, Median (Day 14): −1.30
- Change from Baseline in AM and PM Combined Nasal Symptom Score: Itchy Nose, LS Mean (Day 14): −1.76
- Change from Baseline in AM and PM Combined Nasal Symptom Score: Itchy Nose, Mean (Day 14): −1.74
- Change from Baseline in AM and PM Combined Nasal Symptom Score: Itchy Nose, Median (Day 14): −1.57
- Change from Baseline in AM and PM Combined Nasal Symptom Score: Runny Nose, LS Mean (Day 14): −1.89
- Change from Baseline in AM and PM Combined Nasal Symptom Score: Runny Nose, Mean (Day 14): −1.88
- Change from Baseline in AM and PM Combined Nasal Symptom Score: Runny Nose, Median (Day 14): −2.15
- Change from Baseline in AM and PM Combined Nasal Symptom Score: Sneezing, LS Mean (Day 14): −1.87
- Change from Baseline in AM and PM Combined Nasal Symptom Score: Sneezing, Mean (Day 14): −1.70
- Change from Baseline in AM and PM Combined Nasal Symptom Score: Sneezing, Median (Day 14): −1.83
- Percent Change from Baseline in AM and PM Combined Nasal Symptom Score: Congestion, LS Mean (Day 14): −28.37%
- Percent Change from Baseline in AM and PM Combined Nasal Symptom Score: Congestion, Mean (Day 14): −29.09%
- Percent Change from Baseline in AM and PM Combined Nasal Symptom Score: Congestion, Median (Day 14): −24.53%
- Percent Change from Baseline in AM and PM Combined Nasal Symptom Score: Itchy Nose, LS Mean (Day 14): −33.39%
- Percent Change from Baseline in AM and PM Combined Nasal Symptom Score: Itchy Nose, Mean (Day 14): −33.38%
- Percent Change from Baseline in AM and PM Combined Nasal Symptom Score: Itchy Nose, Median (Day 14): −33.33%
- Percent Change from Baseline in AM and PM Combined Nasal Symptom Score: Runny Nose, LS Mean (Day 14): −36.10%
- Percent Change from Baseline in AM and PM Combined Nasal Symptom Score: Runny Nose, Mean (Day 14): −35.65%
- Percent Change from Baseline in AM and PM Combined Nasal Symptom Score: Runny Nose, Median (Day 14): −41.75%
- Percent Change from Baseline in AM and PM Combined Nasal Symptom Score: Sneezing, LS Mean (Day 14): −39.31%
- Percent Change from Baseline in AM and PM Combined Nasal Symptom Score: Sneezing, Mean (Day 14): −36.07%
- Percent Change from Baseline in AM and PM Combined Nasal Symptom Score: Sneezing, Median (Day 14): −33.94%
- Change from Baseline in AM and PM Combined Nasal Symptom Score: Congestion, LS Mean (Overall (Day 2 to Day 14)): −1.14
- Change from Baseline in AM and PM Combined Nasal Symptom Score: Congestion, Mean (Overall (Day 2 to Day 14)): −1.19
- Change from Baseline in AM and PM Combined Nasal Symptom Score: Congestion, Median (Overall (Day 2 to Day 14)): −0.99
- Change from Baseline in AM and PM Combined Nasal Symptom Score: Itchy Nose, LS Mean (Overall (Day 2 to Day 14)): −1.25
- Change from Baseline in AM and PM Combined Nasal Symptom Score: Itchy Nose, Mean (Overall (Day 2 to Day 14)): −1.24
- Change from Baseline in AM and PM Combined Nasal Symptom Score: Itchy Nose, Median (Overall (Day 2 to Day 14)): −0.95
- Change from Baseline in AM and PM Combined Nasal Symptom Score: Runny Nose, LS Mean (Overall (Day 2 to Day 14)): −1.34
- Change from Baseline in AM and PM Combined Nasal Symptom Score: Runny Nose, Mean (Overall (Day 2 to Day 14)): −1.36
- Change from Baseline in AM and PM Combined Nasal Symptom Score: Runny Nose, Median (Overall (Day 2 to Day 14)): −1.04
- Change from Baseline in AM and PM Combined Nasal Symptom Score: Sneezing, LS Mean (Overall (Day 2 to Day 14)): −1.52
- Change from Baseline in AM and PM Combined Nasal Symptom Score: Sneezing, Mean (Overall (Day 2 to Day 14)): −1.44
- Change from Baseline in AM and PM Combined Nasal Symptom Score: Sneezing, Median (Overall (Day 2 to Day 14)): −1.34
- Percent Change from Baseline in AM and PM Combined Nasal Symptom Score: Congestion, LS Mean (Overall (Day 2 to Day 14)): −21.11%
- Percent Change from Baseline in AM and PM Combined Nasal Symptom Score: Congestion, Mean (Overall (Day 2 to Day 14)): −21.68%
- Percent Change from Baseline in AM and PM Combined Nasal Symptom Score: Congestion, Median (Overall (Day 2 to Day 14)): −18.72%
- Percent Change from Baseline in AM and PM Combined Nasal Symptom Score: Itchy Nose, LS Mean (Overall (Day 2 to Day 14)): −25.54%
- Percent Change from Baseline in AM and PM Combined Nasal Symptom Score: Itchy Nose, Mean (Overall (Day 2 to Day 14)): −25.67%
- Percent Change from Baseline in AM and PM Combined Nasal Symptom Score: Itchy Nose, Median (Overall (Day 2 to Day 14)): −18.89%
- Percent Change from Baseline in AM and PM Combined Nasal Symptom Score: Runny Nose, LS Mean (Overall (Day 2 to Day 14)): −23.02%
- Percent Change from Baseline in AM and PM Combined Nasal Symptom Score: Runny Nose, Mean (Overall (Day 2 to Day 14)): −23.19%
- Percent Change from Baseline in AM and PM Combined Nasal Symptom Score: Runny Nose, Median (Overall (Day 2 to Day 14)): −21.99%
- Percent Change from Baseline in AM and PM Combined Nasal Symptom Score: Sneezing, LS Mean (Overall (Day 2 to Day 14)): −31.80%
- Percent Change from Baseline in AM and PM Combined Nasal Symptom Score: Sneezing, Mean (Overall (Day 2 to Day 14)): −31.11%
- Percent Change from Baseline in AM and PM Combined Nasal Symptom Score: Sneezing, Median (Overall (Day 2 to Day 14)): −33.13%
